Literature values as cited in patent US7351715B2, “Unit dosage forms for the treatment of herpes simplex” (ChronoRx, LLC, priority 1998, dated 2008).

Key:
HSV-1 [1] = settings: in vitro, supplementation with exogenous GSH
[2] = system: herpes simplex virus infections
HSV = settings: topical application, guinea pigs
[3] = rabbits and rats
HSV-1 [4] = settings: in vitro cell culture

For `N[C@@H](CCC(=O)N[C@@H](CS)C(=O)NCC(=O)O)C(=O)O` [GSH, Glutathione], the “inhibition of the replication of HSV-1” value (HSV-1 [1]) is listed as “over 99%”.

For `Cl.NCCCC[C@H](N)C(=O)O` [L-lysine, L-lysine monohydrochloride], the “effect on rate of healing or appearance of lesions” value ([2]; at least one study) is given as “no effect on the rate of healing or the appearance of lesions”, the “reduction of occurrence, severity and healing time” value ([2]; oral, study involving 52 subjects) is given as “effective agent for the reduction of occurrence, severity and healing time” and the “herpes simplex patients with subjective improvement” value ([2]; patients using L-lysine, one study) is given as 88%. The “protection of skin from HSV inoculation” value (HSV) was “protected the skin from HSV inoculation”.

For `O=S(=O)([O-])[O-].[Zn+2]` [Zinc sulfate], the “inactivation of free herpes simplex virus” value (herpes simplex virus) is given as “inactivates free herpes simplex virus”.

For `O=c1[nH]c(=O)n([C@H]2C[C@H](O)[C@@H](CO)O2)cc1I` [idoxuridine, 2′-Deoxy-5-idouridine], the fetal malformations [3] is given as “implicated in fetal malformations in rabbits and rats”.

For `O=c1c(O)c(-c2ccc(O)c(O)c2)oc2cc(O)cc(O)c12` [quercetin, 3,3′,4′,5,7-pentahydroxyflavone], the intracellular viral replication (HSV-1 [4]) is listed as “reduced intracellular viral replication” and the “reduction of infectivity of viruses including HSV-1” value (HSV-1 [4]) is listed as “concentration-dependent reduction of infectivity”.
